Consider one compound from patent US20240190838A1, “LZK-TARGETING DEGRADERS AND METHODS OF USE” (The U.S.A., as represented by the Secretary, Department of …, priority 2020, published 2024).

Structures are written as SMILES. Where a SMILES comes first, the peptide text is derived from it. The star is where a group is joined. Cbz = O=C(OCc1ccccc1)*

For this assay, the system named is c-MYC. Nature of the assay: c-MYC levels in CAL33 and BICR56 cells depleted of LZK. The format is cell-based. The settings on record: 10 μM for six hours; LZK depleted 48 hours. As to the method: CAL33 and BICR56 inducible knockdown cells were generated by SIRION Biotech. MSK921 was generated in-house using lentiviral particles provided by SIRION (generated by transfection of 293TN cells with expression vectors and lentiviral packaging plasmids). Transduction occurred at MOI 5 with 8 μg/mL polybrene. After 24 hours, medium was replaced with fresh medium containing puromycin (Invitrogen) to select for cells that had been effectively transduced. shRNA sequences were […] (sh1; SEQ ID NO: 19) and […] (sh2; SEQ ID NO: 20). The lentiviral expression plasmid was pCLVi(3G)-MCS-Puro, which expresses a doxycycline-responsive transactivator and the shRNA from the same vector. Expression of the transactivator is constitutive, while shRNA expression depends on a doxycycline-inducible promoter. […]
Generally, cells were plated in six-well or 35-mm plates for 24 hours, after which doxycycline was added or treatment with specific inhibitor was administered using 50 FBS media for 48 hours. […] Protein concentrations were determined from the cell lysate by using 660 nm Protein Assay Reagent (Pierce). […] The membranes were incubated with the specific antibodies overnight in […] at 4° C. followed by a 1 hour incubation with the appropriate horseradish peroxidase-conjugated secondary antibodies and signal was detected by chemiluminescence (Thermo Fisher).

`CC(C)C[C@@H](C=O)NC(=O)[C@H](CC(C)C)NC(=O)[C@H](CC(C)C)NC(=O)OCc1ccccc1` [MG132] (Cbz-Leu-Leu-Leu-aldehyde): the “c-MYC levels in LZK-depleted cells” value is given as “rescued decreases in the c-MYC levels”.
